Experimental data taken from patent US11590091B2, “Fixed dose composition of paracetamol: amitriptyline and method for the treatment of mixed cancer pain” (CENTRO DE INVESTIGACIÓN Y DESARROLLO DE MEDICAMENTOS CIDEM, priority 2018, dated 2023).
Like-named read-outs stand apart in the source and are kept apart here.

Assays:
[1] = test system: mechanical hypernociception in the ipsilateral hindpaw of CCI rats; experiment: Sciatic nerve chronic constriction injury (CCI) model, mechanical hypernociception (electronic von Frey); assay type: in vivo, rat (Sprague Dawley); details: for MPE, intensity of mechanical hypernociception: day 14 post-CCI; for ED30, mechanical hypernociception: oral repeated doses, CCI rats, unit not given
Description: (§1) The favorable results at a single dose in phase II of this algesymmetric test provide evidence that allows us to move towards a neuropathic pain model to study the possible combination at repeated doses. […] The CCI model has a high sensitivity (88%) for the prediction of efficacy in controlled clinical trials (Kontinen, V K and Meert, T F 2003. In: Dostrovsky, J O, Carr, D B, Koltzenburg, M. editors. the 10th World Congress on Pain, Seattle: IASP Press, p. 489-98). Once the model was reproduced, the threshold of removal of the injured hindpaw was measured by the stimulation with the von Frey filaments (mechanical allodynia) and by the stimulation with an electronic von Frey (mechanical hypernociception). The measurements were performed under baseline conditions and at 7 days post-CCI (hyperalgesic peak in the model), at which time the experimental groups were conformed (n=6-7 per group) to proceed with the dose-response curve study of amitriptyline. In this way, establish the ED30 or ED50 depending on the % of maximum possible effect (MPE) produced by the drug to reduce each of the sensory symptoms of neuropathic pain reproduced by the model (Jensen, T S and Baron, R. 2003. Pain 102: 1-8). Gabapentin, a common drug in its treatment, was used as a reference. CCI-vehicle group (distilled water 10 mL/kg, p.o.), amitriptyline groups (0.5, 1.5, 3, 10 mg/kg, p.o., AMT), gabapentin group (50 mg/kg, p.o., GBP); Sham CCI Group (distilled water 10 mL/kg, p.o.) The daily supply was given at repeated doses for 7 days until 14 days post-CCI, at which time another evaluation of the variables was performed. […] The experimental groups were formed for the dose-response curve study of paracetamol: CCI-vehicle group (distilled water 10 mL/kg, p.o.), Paracetamol groups (25, 50, 100, 200 mg/kg, p.o., P), Gabapentin group (50 mg/kg, p.o., GBP), CCI Sham Group (distilled water 10 mL/kg, p.o.). These doses of paracetamol have not been associated with liver or kidney damage in rats. […] To execute the dose-response curve mapping, the withdrawal thresholds after the treatments were converted into % of MPE. [Mechanical allodynia: MPE %=(post-treatment threshold−pre-treatment threshold)/(15 g-pre-treatment threshold)×100; Mechanical hypernociception: MPE % (Δ g post-treatment−Δ g pre-treatment)/50−Δ g pre-treatment)×100]. Subsequently, the same design was executed with the four doses of the combination calculated from the theoretical effective dose of each drug, this was calculated for each variable depending on the ED50 or ED30 according to the drug's capacity to obtain 50% or more of MPE that is 100% assumed as the total suppression of mechanical allodynia and mechanical hypernociception induced by CCI. […] In addition, concerning to the hypernociception intensity, the MPE values: 0.5 mg/kg=2.55%, 1.5 mg/kg=16.07% (p<0.05), 3 mg/kg=35.43% (p<0.001), 10 mg/kg=44.95% (p<0.001) vs GBP 50 mg/kg=63.47% (p<0.001), ED30=3.1032 (FIG. 8B). Amitriptyline inhibited both alterations of nociceptive processing but the potency of its effect was in the following order: mechanical allodynia>mechanical hypernociception. In neuropathic pain models there are controversies regarding the observation of the mechanical antiallodynic effect of amitriptyline. […] The result was similar in the model of spared neural injury (SNI), instead it reversed the responses to stimuli induced by chemical irritants induced by ATP and capsaicin, stimuli that are transmitted by the C fibers that express P2X and TRPV1 receptors and that are also involved in the transmission of thermal stimuli.

[2] = Behavioral safety pharmacological tests (rota-rod, tone, posture, righting reflex, general state); assay type: in vivo, rat (Sprague Dawley); details: repeated minor doses (0.5-10 mg/kg p.o.) in the CCI model
Description: The rotating rod or rota-rod test was executed. The apparatus consists of a bar with a diameter of 2.5 cm divided into 4 compartments. The bar rotated at a constant speed of 22 rpm and the time it took for the animals to fall from the bar was evaluated. The animals were evaluated 1 h after the supply. The cut-off time used was 60 seconds. In addition, the tone, posture, righting reflex, corneal, vital signs and general state of the animal were explored from 30 minutes to 3 hours post-administration of the drugs separately and the combination. The corneal and tympanic reflex were explored by the tip of a thin paper to stimulate the cornea or auditory canal and the rapid response of opening and closing of the eyes or the mobilization of the ears in normal animals was observed. The evaluation of the posture and the righting reflex was based on the scale of Devor and Zalkind. Scale for posture: 0=normal posture, grooming supported on its hind legs; 1=moderate atony and ataxia, supports its weight, but can not rest on its hind legs; 2=supports its weight, but ataxia is severe; 3=maintains muscle tone, but can not support its weight, only small movements of intention; 4=atony, flaccidity, totally immobilized, no efforts to mobilize.

[3] = test system: licking/biting behavior after injection of 2.5% formalin in the plantar surface of the rat's paw; experiment: Formalin test (persistent pain model), licking/biting behavior, with isobolographic analysis; assay type: in vivo, rat (Sprague Dawley); details: for percentage of inhibition of phase II (% antinociception) / ED30 for the inhibition of phase II (experimental): single dose; for percentage of inhibition of phase II (% antinociception): 2.5% formalin; for Oral administration ED30: formalin test, dose producing 30% reduction of control response, mean ± SD of the estimate; for ED30 for the inhibition of phase II (experimental): oral, phase II of formalin test, unit not given
Description: In the present invention referred to the combination paracetamol:amitriptyline, the pharmacodynamic rationality was based on the knowledge of the actions of both drugs on the nociceptive pathways considering the multiple sites and mechanisms operating on specific targets, as well as their adverse effects and pharmacokinetic variables. […] This responds to the need for the use of integral systems in which peripheral activity, spinal transmission, modulating systems and suprasegmental systems of the active global network that leads to the perception of pain can interact (Raffa, R B et al., 2010. J Pain 11: 701-709). The experiments were designed in young rats (8-10 weeks, Sprague Dawley, males, 168-240 g, CENPALAB, Havana, Cuba) and divided into several groups n=6-7 each, which received increasing doses of both drugs independent and combinations, to evaluate the effect as a percentage (%) of antinociception at single doses in the formalin test compared to the vehicle-treated group. This test is considered a standard persistent pain model for the study of animal nociception, widely used (Okuda, K. et al., 2001. Pain 92: 107-15). A biphasic nociceptive behavior has been described in this test, the first phase or nociceptive is interpreted as a consequence of the direct activation of the peripheral endings of the nociceptors by the chemical irritant. While the second, tonic or late phase is interpreted as the result of the acute inflammatory response, as well as the peripheral and central sensitization produced by the sustained activation of C fibers (Coderre, T J et al., 1990. Brain Res. 535: 155-8). This phase mimics the changes in synaptic plasticity that occur during persistent pain that could progress to chronicity, which is why it received the greatest attention in our experiments. The period between the two phases of the response is identified as a phase of latency in which the activity diminishes or practically ceases, this effect being attributed to the participation of the mechanisms of central endogenous pain modulation (Dubuisson, D. and, Dennis, S G 1977. Pain 4: 161-74; Omote, K. et al., 1998. Brain Res. 814: 194-8). The time course of the antinociceptive response to individual drugs and combinations was constructed by mapping the mean time of the licking/biting as a function of the time of each phase. These values were transformed into percentage of antinociception that express the percentage of inhibition of the behavior with respect to the control of the particular phase according to the formula: % antinociception=((x−x1)/x)*100. Where X=average time of licking/bite of the control group treated with vehicle, X1=time of licking/biting of each animal of the experimental group (for phase I licking time in 5 minutes, for phase II average of the time of 15 to 45 minutes per animal). In the case that X1 was greater than X, a value of 0 was assigned to % antinociception. A value close to 0% means that the behavior is similar to that of the control group and a value close to 100% means that there was no nocidefensive behavior (Argelles, C. F. et al., 2002. Anesthesiology 96: 921-5). The antihyperalgesic effect of amitriptyline has been recognized in neural damage conditions. […] One of the proposals to explain these discrepancies has been the ability of amitriptyline to increase serotonergic signaling, which has multiple subtypes of receptors, some low and others with high affinity, with heterogeneous and even opposite actions distributed at different levels of the nociceptive pathways. […] However, 5-HT2A and 5-HT3, 5-HT4 and 5-HT7 localized pre-synaptically facilitate it. […] As a consequence, the most integrated licking/biting behavior was recorded and doses of amitriptyline (0.1, 1, 3, 10 mg/kg, p.o., AMT) were used for the dose-response curve study (FIG. 1). […]

[4] = test system: mechanical allodynia in the ipsilateral hindpaw of CCI rats; experiment: Sciatic nerve chronic constriction injury (CCI) model, mechanical allodynia (von Frey filaments), with isobolographic analysis; assay type: in vivo, rat (Sprague Dawley); details: for MPE, mechanical allodynia: day 14 post-CCI; for ED50: Rattus norvegicus
Description: as §1

[5] = test system: CCI-induced Wallerian degeneration-related changes in rat sciatic nerve; experiment: Histopathological study of sciatic nerve sections (Wallerian degeneration) in CCI rats; details: GBP as positive control, 14 days post-CCI
[6] = 0.5 mg/kg p.o. daily for 7 days
[7] = 1.5 mg/kg p.o. daily for 7 days
[8] = po, CCI model, dose producing 50% reduction of control response, table values mean ± SD of the estimate, read-out: Oral administration ED50 (antiallodynic, experimental)
[9] = oral repeated doses, CCI rats, unit inferred, read-out: ED50, mechanical allodynia
[10] = 100 mg/kg p.o. daily for 7 days
[11] = 200 mg/kg p.o. daily for 7 days

CN(C)CCC=C1c2ccccc2CCc2ccccc21 [Amitriptyline, amitriptyline]
MPE, intensity of mechanical hypernociception [1, 6]: 2.55% | MPE, intensity of mechanical hypernociception [1, 7]: 16.07% | MPE, intensity of mechanical hypernociception ([1]; 3 mg/kg p.o. daily for 7 days): 35.43% | MPE, intensity of mechanical hypernociception ([1]; 10 mg/kg p.o. daily for 7 days): 44.95% | intensity of mechanical hypernociception ([1]; dose of 1.5 (p<0.01), 3 and 10 mg/kg (p<0.001) p.o., repeated 7 days): significantly reduced the intensity of mechanical hypernociception | ED30, mechanical hypernociception [1]: 3.1032 | signs of sedation or catalepsy [2]: no signs of sedation or catalepsy | percentage of inhibition of phase II (% antinociception) ([3]; 0.1 mg/kg p.o., phase II (15-45 min)): −11.38% | percentage of inhibition of phase II (% antinociception) ([3]; 1 mg/kg p.o., phase II): 57.35% | percentage of inhibition of phase II (% antinociception) ([3]; 3 mg/kg p.o., phase II): 55.56% | percentage of inhibition of phase II (% antinociception) ([3]; 10 mg/kg p.o., phase II): 62.24% | inhibitory effect on phases of the formalin test ([3]; doses 0.1, 1, 3, 10 mg/kg p.o.): significant inhibitory effect was observed exclusively on phase II | licking/biting response in both phases ([3]; doses of 20, 25, 50 and 100 mg/kg): a significant dose-dependent inhibitory response pattern was not observed | Oral administration ED30 [3]: 0.66 ± 0.41 mg/kg | ED30 for the inhibition of phase II (experimental) [3]: 0.6677 | MPE, mechanical allodynia [4, 6]: 0.96% | MPE, mechanical allodynia [4, 7]: 1.31% | MPE, mechanical allodynia ([4]; 3 mg/kg p.o. daily for 7 days): 58.75% | MPE, mechanical allodynia ([4]; 10 mg/kg p.o. daily for 7 days): 65.97% | ED50 [4, 8]: 4.54 ± 2.28 mg/kg | ED50 [4, 9]: 4.54 mg/kg | withdrawal thresholds of the damaged paw to von Frey filaments stimulation ([4]; doses of 3 and 10 mg/kg p.o., repeated 7 days (p<0.05)): increased the withdrawal thresholds

CC(=O)Nc1ccc(O)cc1 [Paracetamol, paracetamol]
MPE, intensity of mechanical hypernociception ([1]; 25 mg/kg p.o. daily for 7 days): 31.79% | MPE, intensity of mechanical hypernociception ([1]; 50 mg/kg p.o. daily for 7 days): 35.05% | MPE, intensity of mechanical hypernociception [1, 10]: 42.42% | MPE, intensity of mechanical hypernociception [1, 11]: 48.37% | mechanical antihypernociceptive effect ([1]; 25, 50, 100 (p<0.01) and 200 mg/kg (p<0.001) p.o., similar to GBP): mechanical antihypernociceptive effect in a dose-dependent manner | efficacy to reduce the intensity of mechanical hypernociception, 300 mg/kg versus 200 mg/kg ([1]; doses of 300 mg/kg compared with 200 mg/kg): less efficacy | ED30, mechanical hypernociception [1]: 22.5725 | percentage of inhibition of phase II (% antinociception) ([3]; 50 mg/kg p.o., phase II): 38.08% | percentage of inhibition of phase II (% antinociception) ([3]; 100 mg/kg p.o., phase II): 65.73% | percentage of inhibition of phase II (% antinociception) ([3]; 200 mg/kg p.o., phase II): 74.24% | effect on phase I of the formalin test ([3]; 300 mg/kg p.o. (printed 'the dose higher than 300 mg/kg')): significantly reduced phase I | percentage of inhibition of phase II (% antinociception) ([3]; 300 mg/kg p.o., phase II): 87.78% | effect on phase II of the formalin test ([3]; all doses used: 50, 100, 200, 300 mg/kg p.o.): significantly reduced phase II | Oral administration ED30 [3]: 32.35 ± 7.85 mg/kg | ED30 for the inhibition of phase II (experimental) [3]: 32.3578 | MPE, mechanical allodynia ([4]; 25 mg/kg p.o. daily for 7 days): 25.65% | MPE, mechanical allodynia ([4]; 50 mg/kg p.o. daily for 7 days): 60.96% | MPE, mechanical allodynia [4, 10]: 75.49% | MPE, mechanical allodynia [4, 11]: 75.45% | ED50 [4, 8]: 47.5 ± 14.1 mg/kg | ED50 [4, 9]: 47.5 mg/kg | antiallodynic effect ([4]; doses 25, 50, 100, 200 mg/kg p.o., repeated 7 days (p<0.05)): significant antiallodynic effect from doses of 50 mg/kg

NCC1(CC(=O)O)CCCCC1 [GBP, gabapentin]
Wallerian degeneration alterations in sciatic nerve (qualitative) [5]: show a decrease in these alterations | MPE, intensity of mechanical hypernociception ([1]; 50 mg/kg p.o. daily for 7 days): 63.47% | MPE, mechanical allodynia ([4]; 50 mg/kg p.o. daily for 7 days): 60.66%
